Test [1] relates to Candida albicans. The experiment in a line: microbe, parasite or virus in culture. It counts as functional.
Test [2] relates to Pseudomonas aeruginosa. In words: microbe, parasite or virus in culture. It counts as functional.
Description: Antibacterial activity against Pseudomonas aeruginosa
The subject of test [3] is Escherichia coli. The experiment in a line: microbe, parasite or virus in culture. The class given is functional.
Description: Antibacterial activity against Escherichia coli
Test [4] deals with Staphylococcus aureus. The experiment in a line: microbe, parasite or virus in culture. It counts as functional.
Description: Antibacterial activity against Staphylococcus aureus
The subject of test [5] is Candida albicans. In words: Antifungal activity against Candida albicans at 300 ug/ml. It counts as functional. The note with it: read-out: IZ.
Test [6] deals with Pseudomonas aeruginosa. The experiment in a line: microbe, parasite or virus in culture. The class given is functional. The conditions noted are these: read-out: IZ.
Description: Antibacterial activity against Pseudomonas aeruginosa at 300 ug/ml
In test [7] the test system is Escherichia coli. In words: microbe, parasite or virus in culture. It counts as functional. The note with it: read-out: IZ.
Description: Antibacterial activity against Escherichia coli at 300 ug/ml
Test [8] deals with Bacillus subtilis. The experiment in a line: microbe, parasite or virus in culture. The class given is functional. The note with it: read-out: IZ.
Description: Antibacterial activity against Bacillus subtilis at 300 ug/ml
Test [9] has as its system Staphylococcus aureus. The experiment in a line: microbe, parasite or virus in culture. It counts as functional. The conditions noted are these: read-out: IZ.
Description: Antibacterial activity against Staphylococcus aureus at 300 ug/ml
Test [10] has as its system Bacillus subtilis. The experiment in a line: microbe, parasite or virus in culture. The class given is functional.
Description: Antibacterial activity against Bacillus subtilis
In test [11] the test system is Candida albicans.
Test [12] deals with Candida albicans. The source holds these as a separate data set.

≈ marks a conversion by molar mass, not a printed value.

As for `COc1ccc(-[n+]2noc([O-])c2CNc2ccccc2Cl)cc1`, the MIC in the test on Candida albicans [1] came out at 300 µg/mL (≈ 904 µM); in the test with Pseudomonas aeruginosa [2] it was 500 µg/mL (≈ 1510 µM); in the test on Escherichia coli [3] it was 300 µg/mL (≈ 904 µM); in the test with Staphylococcus aureus [4], 300 µg/mL (≈ 904 µM); in the test on Bacillus subtilis [10], 300 µg/mL (≈ 904 µM). Moreover, the zone of inhibition at 300 µg/mL was found to be 12 mm in the test with Candida albicans [5]; 10 mm with Pseudomonas aeruginosa [6]; 12 mm with Escherichia coli [7]; 12 mm in the test with Bacillus subtilis [8]; 12 mm in the test on Staphylococcus aureus [9].
For `COc1ccc(-[n+]2noc([O-])c2CNc2cc(Cl)ccc2Cl)cc1`, the MIC against Candida albicans [1] is 300 µg/mL (≈ 819 µM); in the test on Pseudomonas aeruginosa [2], 500 µg/mL (≈ 1370 µM); with Escherichia coli [3], 500 µg/mL (≈ 1370 µM); against Staphylococcus aureus [4], 300 µg/mL (≈ 819 µM); in the test on Bacillus subtilis [10], 300 µg/mL (≈ 819 µM). The zone of inhibition at 300 µg/mL in the test on Candida albicans [5] worked out at 13 mm; in the test on Pseudomonas aeruginosa [6], 10 mm; in the test on Escherichia coli [7], 10 mm; in the test with Bacillus subtilis [8], 12 mm; in the test on Staphylococcus aureus [9] it was 11 mm.
On to `COc1ccc(NCc2c([O-])on[n+]2-c2ccc(OC)cc2)cc1`, for which the MIC was 200 µg/mL (≈ 611 µM) in the test with Candida albicans [1]; 100 µg/mL (≈ 305 µM) in the test on Pseudomonas aeruginosa [2]; 200 µg/mL (≈ 611 µM) against Escherichia coli [3]; 80 µg/mL (≈ 244 µM) against Staphylococcus aureus [4]; 100 µg/mL (≈ 305 µM) against Bacillus subtilis [10]. In addition, the zone of inhibition at 300 µg/mL in the test with Candida albicans [5] amounted to 20 mm; with Pseudomonas aeruginosa [6] it was 14 mm; in the test on Escherichia coli [7] it was 12 mm; with Bacillus subtilis [8] it was 18 mm; in the test on Staphylococcus aureus [9], 16 mm.
`COc1ccc(-[n+]2noc([O-])c2CNc2nc3ccc(C)cc3s2)cc1`: the MIC in the test on Candida albicans [1] is 100 µg/mL (≈ 271 µM); against Pseudomonas aeruginosa [2], 500 µg/mL (≈ 1360 µM); against Escherichia coli [3], 300 µg/mL (≈ 814 µM); in the test with Staphylococcus aureus [4] it was 200 µg/mL (≈ 543 µM); in the test on Bacillus subtilis [10], 60 µg/mL (≈ 163 µM). Further, the zone of inhibition at 300 µg/mL in the test on Candida albicans [5] was found to be 17 mm; with Pseudomonas aeruginosa [6], 10 mm; in the test with Escherichia coli [7], 12 mm; in the test with Bacillus subtilis [8], 18 mm; with Staphylococcus aureus [9], 15 mm.
With `COc1ccc(-[n+]2noc([O-])c2Cn2c(-c3ccc(Cl)cc3Cl)nc3ccccc32)cc1`, the MIC was 200 µg/mL (≈ 428 µM) in the test with Candida albicans [1]; 300 µg/mL (≈ 642 µM) against Pseudomonas aeruginosa [2]; 300 µg/mL (≈ 642 µM) against Escherichia coli [3]; 500 µg/mL (≈ 1070 µM) in the test with Staphylococcus aureus [4]; 500 µg/mL (≈ 1070 µM) in the test with Bacillus subtilis [10]. The zone of inhibition at 300 µg/mL with Candida albicans [5] stood at 16 mm; in the test on Pseudomonas aeruginosa [6] it was 12 mm; in the test with Escherichia coli [7], 12 mm; with Bacillus subtilis [8], 10 mm; in the test with Staphylococcus aureus [9], 10 mm.
For `COc1ccc(-[n+]2noc([O-])c2CNc2ccc(Cl)cc2)cc1`, the MIC in the test on Candida albicans [1] came to 80 µg/mL (≈ 241 µM); with Pseudomonas aeruginosa [2], 300 µg/mL (≈ 904 µM); with Escherichia coli [3], 300 µg/mL (≈ 904 µM); in the test on Staphylococcus aureus [4], 200 µg/mL (≈ 603 µM); against Bacillus subtilis [10], 200 µg/mL (≈ 603 µM). Besides, the zone of inhibition at 300 µg/mL in the test with Candida albicans [5] came to 18 mm; with Pseudomonas aeruginosa [6], 13 mm; in the test on Escherichia coli [7], 13 mm; with Bacillus subtilis [8] it was 13 mm; with Staphylococcus aureus [9], 12 mm.
Turning to `CCOc1ccc2nc(NCc3c([O-])on[n+]3-c3ccc(OC)cc3)sc2c1`, the MIC against Candida albicans [1] is 200 µg/mL (≈ 502 µM); with Pseudomonas aeruginosa [2], 200 µg/mL (≈ 502 µM); in the test with Escherichia coli [3], 300 µg/mL (≈ 753 µM); against Staphylococcus aureus [4], 200 µg/mL (≈ 502 µM); in the test with Bacillus subtilis [10] it was 200 µg/mL (≈ 502 µM). The zone of inhibition at 300 µg/mL stood at 14 mm in the test on Candida albicans [5]; 13 mm in the test with Pseudomonas aeruginosa [6]; 13 mm in the test on Escherichia coli [7]; 13 mm in the test with Bacillus subtilis [8]; 14 mm in the test on Staphylococcus aureus [9].
Turning to `COc1ccc(-[n+]2noc([O-])c2CNc2ccc(C)cc2)cc1`, the MIC against Candida albicans [1], in the test with Pseudomonas aeruginosa [2], in the test on Escherichia coli [3], against Staphylococcus aureus [4] and against Bacillus subtilis [10] was 200 µg/mL (≈ 642 µM) throughout. Moreover, the zone of inhibition at 300 µg/mL is 16 mm in the test with Candida albicans [5]; 13 mm with Pseudomonas aeruginosa [6]; 13 mm in the test with Escherichia coli [7]; 14 mm with Bacillus subtilis [8]; 13 mm with Staphylococcus aureus [9].
Turning to `COc1ccc(-[n+]2noc([O-])c2Cn2c(-c3cccc(Br)c3)nc3ccccc32)cc1`, the MIC amounted to 200 µg/mL (≈ 419 µM) against Candida albicans [1]; 500 µg/mL (≈ 1050 µM) in the test on Pseudomonas aeruginosa [2]; 300 µg/mL (≈ 629 µM) against Escherichia coli [3]; 500 µg/mL (≈ 1050 µM) against Staphylococcus aureus [4]; 500 µg/mL (≈ 1050 µM) in the test on Bacillus subtilis [10]. For the same molecule, the zone of inhibition at 300 µg/mL was found to be 14 mm in the test with Candida albicans [5]; 10 mm in the test on Pseudomonas aeruginosa [6]; 12 mm in the test with Escherichia coli [7]; 10 mm in the test on Bacillus subtilis [8]; 10 mm in the test on Staphylococcus aureus [9].
With `COc1ccc(-[n+]2noc([O-])c2CNc2ccc([N+](=O)[O-])cc2)cc1`, the MIC against Candida albicans [1] is 200 µg/mL (≈ 584 µM); with Pseudomonas aeruginosa [2] it was 200 µg/mL (≈ 584 µM); against Escherichia coli [3], 200 µg/mL (≈ 584 µM); in the test with Staphylococcus aureus [4], 500 µg/mL (≈ 1460 µM); in the test on Bacillus subtilis [10] it was 200 µg/mL (≈ 584 µM). The zone of inhibition at 300 µg/mL was found to be 14 mm in the test on Candida albicans [5]; 14 mm in the test on Pseudomonas aeruginosa [6]; 14 mm in the test on Escherichia coli [7]; 12 mm in the test on Bacillus subtilis [8]; 10 mm in the test on Staphylococcus aureus [9].
`COc1ccc(-[n+]2noc([O-])c2Cn2c(-c3ccc([N+](=O)[O-])cc3)nc3ccccc32)cc1`: the MIC turned out to be 200 µg/mL (≈ 451 µM) against Candida albicans [1]; 300 µg/mL (≈ 677 µM) in the test on Pseudomonas aeruginosa [2]; 60 µg/mL (≈ 135 µM) in the test on Escherichia coli [3]; 500 µg/mL (≈ 1130 µM) against Staphylococcus aureus [4]; 300 µg/mL (≈ 677 µM) with Bacillus subtilis [10]. For the same molecule, the zone of inhibition at 300 µg/mL in the test with Candida albicans [5] came out at 12 mm; in the test with Pseudomonas aeruginosa [6], 12 mm; in the test on Escherichia coli [7], 18 mm; in the test with Bacillus subtilis [8] it was 12 mm; in the test with Staphylococcus aureus [9] it was 10 mm.
On to `COc1ccc(-[n+]2noc([O-])c2CNc2ccccc2[N+](=O)[O-])cc1`, for which the MIC was determined as 200 µg/mL (≈ 584 µM) against Candida albicans [1]; 200 µg/mL (≈ 584 µM) in the test with Pseudomonas aeruginosa [2]; 200 µg/mL (≈ 584 µM) against Escherichia coli [3]; 300 µg/mL (≈ 876 µM) in the test on Staphylococcus aureus [4]; 200 µg/mL (≈ 584 µM) against Bacillus subtilis [10]. Further, the zone of inhibition at 300 µg/mL with Candida albicans [5] came out at 14 mm; in the test on Pseudomonas aeruginosa [6] it was 13 mm; with Escherichia coli [7], 14 mm; in the test on Bacillus subtilis [8], 13 mm; in the test on Staphylococcus aureus [9], 11 mm.
Molecule NYSTATIN had an MIC against Candida albicans [11] of 100 µg/mL. This molecule also returned an IZ in the test with Candida albicans [12] of 28 mm.
Take `COc1ccc(-[n+]2noc([O-])c2CNc2nc3ccc(OC)cc3s2)cc1`: the MIC in the test on Candida albicans [1] came out at 100 µg/mL (≈ 260 µM); against Pseudomonas aeruginosa [2], 200 µg/mL (≈ 520 µM); in the test with Escherichia coli [3] it was 200 µg/mL (≈ 520 µM); against Staphylococcus aureus [4] it was 100 µg/mL (≈ 260 µM); against Bacillus subtilis [10], 200 µg/mL (≈ 520 µM). Moreover, the zone of inhibition at 300 µg/mL was 15 mm in the test on Candida albicans [5]; 14 mm in the test with Pseudomonas aeruginosa [6]; 13 mm in the test on Escherichia coli [7]; 12 mm in the test with Bacillus subtilis [8]; 14 mm in the test on Staphylococcus aureus [9].
Take `COc1ccc(-[n+]2noc([O-])c2CNc2nc3ccc([N+](=O)[O-])cc3s2)cc1`: the MIC against Candida albicans [1] came out at 100 µg/mL (≈ 250 µM); in the test with Pseudomonas aeruginosa [2], 200 µg/mL (≈ 501 µM); against Escherichia coli [3], 300 µg/mL (≈ 751 µM); against Staphylococcus aureus [4], 80 µg/mL (≈ 200 µM); against Bacillus subtilis [10], 40 µg/mL (≈ 100 µM). For the same molecule, the zone of inhibition at 300 µg/mL in the test on Candida albicans [5] amounted to 17 mm; in the test with Pseudomonas aeruginosa [6], 16 mm; in the test on Escherichia coli [7], 12 mm; in the test on Bacillus subtilis [8], 18 mm; in the test on Staphylococcus aureus [9], 16 mm.
Take `COc1ccc(-[n+]2noc([O-])c2Cn2c(-c3ccccc3Br)nc3ccccc32)cc1`: the MIC in the test on Candida albicans [1] is 200 µg/mL (≈ 419 µM); in the test with Pseudomonas aeruginosa [2] it was 200 µg/mL (≈ 419 µM); in the test with Escherichia coli [3], 200 µg/mL (≈ 419 µM); with Staphylococcus aureus [4], 500 µg/mL (≈ 1050 µM); in the test with Bacillus subtilis [10], 300 µg/mL (≈ 629 µM). Besides, the zone of inhibition at 300 µg/mL in the test on Candida albicans [5] is 13 mm; in the test on Pseudomonas aeruginosa [6], 13 mm; in the test with Escherichia coli [7], 14 mm; in the test on Bacillus subtilis [8], 12 mm; in the test on Staphylococcus aureus [9], 10 mm.
